Results published in ChEMBL document CHEMBL4673405, “Novel Linker Variants of Antileishmanial/Antitubercular 7-Substituted 2-Nitroimidazooxazines Offer Enhanced Solubility” (ACS Med Chem Lett, 2021).
pIC50: −log10 of the molar value. In brackets after ≈: the same amount, converted by molar mass.

How the values were obtained:
[1] = Solubility of the compound in 0.1 M HCl at pH 1 sonicated for 15 mins by HPLC analysis; format: physicochemical
[2] = system: Leishmania donovani; assay: (§1) Antileishmanial activity against Leishmania donovani MHOM/ET/67/HU3 amastigotes infected in BALB/c mouse model of visceral leishmaniasis assessed as reduction in parasite burden in liver at 50 mg/kg, po administered once daily for 5 consecutive days starting after 7 days post-infection by microscopic analysis relative to control; format: functional; design: scale not given: the % may be the effect or the level left; details: time 5 day
[3] = system: MRC5; assay: Cytotoxicity against human MRC5 cells assessed as reduction in cell viability measured after 72 hrs by resazurin assay; format: ADME, cell-based; details: MRC5, 72 h
[4] = Aqueous solubility of the compound at pH 7 sonicated for 15 mins by HPLC analysis; details: aqueous medium
[5] = system: Leishmania infantum; assay: Antileishmanial activity against Leishmania infantum MHOM/MA(BE)/67 amastigotes infected in mouse peritoneal macrophages incubated for 5 days by Giemsa staining based assay; format: functional, organism-based; details: MHOM/MA(BE)/67, Peritoneal macrophage, 120 h
[6] = Microsomal stability in human liver microsomes assessed as parent compound remaining at 1 uM measured up to 60 mins in presence of NADPH by LC-MS/MS analysis
[7] = Microsomal stability in mouse liver microsomes assessed as parent compound remaining at 1 uM measured up to 60 mins in presence of NADPH by LC-MS/MS analysis
[8] = system: Leishmania donovani; assay: as §1, with “spleen” for “liver”, “25” for “50”; format: functional; design: scale not given: the % may be the effect or the level left; details: time 5 day
[9] = Volume of distribution at steady state in BALB/c mouse at 1 mg/kg, iv measured up to 24 hrs by LC-MS/MS analysis; details: in vivo
[10] = in vivo; details: BALB/c, mouse, po, 25 mg/kg
[11] = AUClast in BALB/c mouse at 1 mg/kg, iv measured up to 24 hrs by LC-MS/MS analysis; details: in vivo
[12] = system: Leishmania donovani; assay: as §1, with “12.5” for “50”; format: functional; design: scale not given: the % may be the effect or the level left; details: time 5 day
[13] = in vivo; details: BALB/c, mouse, po, 25 mg/kg; remark: listed apart in the source
Description: AUClast in BALB/c mouse at 25 mg/kg, po measured up to 24 hrs by LC-MS/MS analysis

[14] = Initial plasma concentration in BALB/c mouse at 1 mg/kg, iv measured up to 24 hrs by LC-MS/MS analysis
[15] = Clearance in BALB/c mouse at 1 mg/kg, iv measured up to 24 hrs by LC-MS/MS analysis; details: in vivo
[16] = Half life in BALB/c mouse at 25 mg/kg, po measured up to 24 hrs by LC-MS/MS analysis; format: ADME, organism-based; details: in vivo
[17] = system: Leishmania donovani; assay: as §1, with “spleen” for “liver”; format: functional; design: scale not given: the % may be the effect or the level left; details: time 5 day
[18] = system: Leishmania donovani; assay: as §1, with “25” for “50”; format: functional; design: scale not given: the % may be the effect or the level left; details: time 5 day
[19] = in vivo; details: BALB/c, mouse, po, 25 mg/kg; remark: listed apart in the source
[20] = Half life in BALB/c mouse at 1 mg/kg, iv measured up to 24 hrs by LC-MS/MS analysis; details: in vivo
[21] = system: Leishmania donovani; assay: Antileishmanial activity against Leishmania donovani MHOM/ET/67/HU3 amastigotes infected in po dosed BALB/c mouse model of visceral leishmaniasis assessed as reduction in parasite burden in liver at administered once daily for 5 consecutive days starting after 7 days post-infection by microscopic analysis; format: functional; details: MHOM/ET/67/HU3, po, 120 h, time 5 day
[22] = in vivo; details: BALB/c, mouse, po, 25 mg/kg; remark: listed apart in the source
[23] = system: Mycobacterium tuberculosis; assay: Antitubercular activity against Mycobacterium tuberculosis H37Rv assessed as minimum inhibitory concentration required to inhibit 90% of bacterial growth incubated for 10 days under anerobic condition followed by incubation under ambient gaseous condition for 7 days by low oxygen recovery assay; format: functional; details: 408 h, time 17 day
[24] = system: Mycobacterium tuberculosis; assay: Antitubercular activity against Mycobacterium tuberculosis H37Rv assessed as minimum inhibitory concentration required to inhibit 90% of bacterial growth incubated for 7 days under aerobic condition by microplate Alamar blue assay; format: functional; details: 168 h, time 7 day
[25] = system: Leishmania donovani; assay: as §1, with “6.25” for “50”; format: functional; design: scale not given: the % may be the effect or the level left; details: time 5 day

| SMILES | pIC50 [3] | solubility at 0.25 h [4] [µg/mL] | pIC50 [5] | other results |
| --- | --- | --- | --- | --- |
| CN(CC1(C)CCn2cc([N+](=O)[O-])nc2O1)c1ccc(OC(F)(F)F)cc1 (stereo not drawn) | ≤ 4.40 | 1.5 (≈ 3.88 µM) | 6.57 | solubility at 0.25 h [1]: 4.6 µg/mL (≈ 11.9 µM); Activity [2]: 58% |
| CC1(CNc2ccc(F)cc2)CCn2cc([N+](=O)[O-])nc2O1 (stereo not drawn) | ≤ 4.40 |  | 6.03 |  |
| CC1(CNC(=O)c2cccc(OC(F)(F)F)c2)CCn2cc([N+](=O)[O-])nc2O1 (stereo not drawn) | ≤ 4.40 | 14 (≈ 35 µM) | 5.89 | remaining at 1 h, 1 µM [6]: 58%; remaining at 1 h, 1 µM [7]: 36% |
| CN(CC1(C)CCn2cc([N+](=O)[O-])nc2O1)c1ccc(Cl)cc1 (stereo not drawn) | ≤ 4.40 |  | 6.51 |  |
| CC1(CNC(=O)OCc2ccc(OC(F)(F)F)cc2)CCn2cc([N+](=O)[O-])nc2O1 (stereo not drawn) | ≤ 4.40 | 28 (≈ 65.1 µM) | 6.80 |  |
| O=C(NCc1ccc(OC(F)(F)F)cc1)OCC1CCn2cc([N+](=O)[O-])nc2O1 (stereo not drawn) | ≤ 4.40 |  | 6.74 |  |
| CC1(COC(=O)Nc2ccc(OC(F)(F)F)cc2)CCn2cc([N+](=O)[O-])nc2O1 (stereo not drawn) | ≤ 4.40 | 11 (≈ 26.4 µM) | 6.44 | Activity [8]: 96%; Vd at 24 h [9]: 1.2 L/kg; Tmax at 24 h [10]: 0.75 h; AUC(0-t) at 24 h [11]: 2070 ng·h/mL; Activity [12]: 7%; AUC(0-t) at 24 h [13]: 57800 ng·h/mL; Activity [2]: >99%; C0 at 24 h [14]: 800 ng/mL; clearance at 24 h [15]: 8.5 mL/min/kg; half-life [16]: 1.7 h; Activity [17]: 100%; Activity [18]: 97%; Cmax at 24 h [19]: 13500 ng/mL; half-life at 24 h [20]: 1.3 h; ED50 [21]: 16 mg/kg; bioavailability at 24 h [22]: 100% |
| O=C(NCC1CCn2cc([N+](=O)[O-])nc2O1)c1ccc(OC(F)(F)F)cc1 (stereo not drawn) | ≤ 4.40 |  | 5.82 |  |
| CC1(COc2ccc(Cl)cc2)CCn2cc([N+](=O)[O-])nc2O1 (stereo not drawn) | ≤ 4.40 |  | 6.89 |  |
| CC1(CNC(=O)Nc2ccc(OC(F)(F)F)cc2)CCn2cc([N+](=O)[O-])nc2O1 (stereo not drawn) | ≤ 4.40 | 121 (≈ 291 µM) | 5.85 | Activity [2]: 36%; remaining at 1 h, 1 µM [6]: 54%; remaining at 1 h, 1 µM [7]: 39% |
| C[C@]1(COC(=O)Nc2ccc(OC(F)(F)F)cc2)CCn2cc([N+](=O)[O-])nc2O1 | ≤ 4.40 | 6.3 (≈ 15.1 µM) | 6.85 | Activity [12]: 40%; MIC90 [23]: 1 µM (≈ 0.416 µg/mL); MIC90 [24]: 0.085 µM (≈ 0.0354 µg/mL); Activity [18]: 89% |
| C[C@@]1(COC(=O)Nc2ccc(OC(F)(F)F)cc2)CCn2cc([N+](=O)[O-])nc2O1 | ≤ 4.40 | 7.9 (≈ 19 µM) | 6.70 | Activity [12]: 31%; Activity [18]: 51% |
| CC1(COc2ccc(F)cc2)CCn2cc([N+](=O)[O-])nc2O1 (stereo not drawn) | ≤ 4.40 |  | 6.35 |  |
| CC1(COC(=O)Nc2ccccc2OC(F)(F)F)CCn2cc([N+](=O)[O-])nc2O1 (stereo not drawn) | ≤ 4.40 |  | 6.19 |  |
| CC1(CNC(=O)NCc2ccc(OC(F)(F)F)cc2)CCn2cc([N+](=O)[O-])nc2O1 (stereo not drawn) | ≤ 4.40 |  | 5.74 |  |
| CC1(CNS(=O)(=O)c2cccc(OC(F)(F)F)c2)CCn2cc([N+](=O)[O-])nc2O1 (stereo not drawn) | ≤ 4.40 |  | 5.70 |  |
| CN(CC1(C)CCn2cc([N+](=O)[O-])nc2O1)c1ccc(C(F)(F)F)nc1 (stereo not drawn) | ≤ 4.40 |  | 5.66 |  |
| CC1(COCC(=O)Nc2ccc(OC(F)(F)F)cc2)CCn2cc([N+](=O)[O-])nc2O1 (stereo not drawn) | ≤ 4.40 |  | 6.31 |  |

| SMILES | pIC50 [3] | solubility at 0.25 h [4] [µg/mL] | pIC50 [5] | other results |
| --- | --- | --- | --- | --- |
| CC1(COC(=O)NCc2ccc(OC(F)(F)F)cc2)CCn2cc([N+](=O)[O-])nc2O1 (stereo not drawn) | ≤ 4.40 | 117 (≈ 272 µM) | 6.49 |  |
| O=C(NCc1ccc(OC(F)(F)F)cc1)N(Cc1ccc(OC(F)(F)F)cc1)C(=O)OCC1CCn2cc([N+](=O)[O-])nc2O1 (stereo not drawn) | ≤ 4.40 |  | 6.10 |  |
| CC1(COC(=O)N(Cc2ccc(OC(F)(F)F)cc2)C(=O)NCc2ccc(OC(F)(F)F)cc2)CCn2cc([N+](=O)[O-])nc2O1 (stereo not drawn) | ≤ 4.40 |  | 5.89 |  |
| CN(CC1(C)CCn2cc([N+](=O)[O-])nc2O1)c1ccc(F)cc1 (stereo not drawn) | ≤ 4.40 |  | 6.32 |  |
| CC1(CNc2ccc(OC(F)(F)F)cc2)CCn2cc([N+](=O)[O-])nc2O1 (stereo not drawn) | ≤ 4.40 | 3 (≈ 8.06 µM) | 6.74 | Activity [25]: 29%; solubility at 0.25 h [1]: 10 µg/mL (≈ 26.9 µM); Activity [2]: >99% |
| CC1(CNC(=O)c2ccccc2OC(F)(F)F)CCn2cc([N+](=O)[O-])nc2O1 (stereo not drawn) | ≤ 4.40 |  | 5.00 |  |
| O=C(NCC1CCn2cc([N+](=O)[O-])nc2O1)Nc1ccc(OC(F)(F)F)cc1 (stereo not drawn) | ≤ 4.40 |  | 5.48 |  |
| CC1(CNC(=O)Cc2ccc(OC(F)(F)F)cc2)CCn2cc([N+](=O)[O-])nc2O1 (stereo not drawn) | ≤ 4.40 |  | 5.70 |  |
| CC1(CNc2ccc(Cl)cc2)CCn2cc([N+](=O)[O-])nc2O1 (stereo not drawn) | ≤ 4.40 |  | 6.54 |  |
| CC1(CNS(=O)(=O)c2ccc(OC(F)(F)F)cc2)CCn2cc([N+](=O)[O-])nc2O1 (stereo not drawn) | ≤ 4.40 |  | 5.66 |  |
| CC1(COc2ccc(OC(F)(F)F)cc2)CCn2cc([N+](=O)[O-])nc2O1 (stereo not drawn) |  |  |  | Activity [12]: 100%; Activity [18]: 100% |
| O=C(Nc1ccc(OC(F)(F)F)cc1)OCC1CCn2cc([N+](=O)[O-])nc2O1 (stereo not drawn) | ≤ 4.40 | 4.5 (≈ 11.2 µM) | 6.44 | Vd at 24 h [9]: 1.6 L/kg; Tmax at 24 h [10]: 1 h; AUC(0-t) at 24 h [11]: 1170 ng·h/mL; AUC(0-t) at 24 h [13]: 35400 ng·h/mL; C0 at 24 h [14]: 740 ng/mL; clearance at 24 h [15]: 14 mL/min/kg; half-life [16]: 1.6 h; Cmax at 24 h [19]: 9600 ng/mL; half-life at 24 h [20]: 1.2 h; bioavailability at 24 h [22]: 100% |
| CC1(CNC(=O)c2ccc(OC(F)(F)F)cc2)CCn2cc([N+](=O)[O-])nc2O1 (stereo not drawn) | ≤ 4.40 | 78 (≈ 195 µM) | 5.85 | Activity [2]: 71% |
| CC1(CNCc2ccc(OC(F)(F)F)cc2)CCn2cc([N+](=O)[O-])nc2O1 (stereo not drawn) | ≤ 4.40 | 124 (≈ 321 µM) | 6.89 | solubility at 0.25 h [1]: 33000 µg/mL (≈ 85400 µM) |
| CC1(CNC(=O)COc2ccc(OC(F)(F)F)cc2)CCn2cc([N+](=O)[O-])nc2O1 (stereo not drawn) | ≤ 4.40 |  | 5.77 |  |
| CN(CC1CCn2cc([N+](=O)[O-])nc2O1)c1ccc(OC(F)(F)F)cc1 (stereo not drawn) | ≤ 4.40 |  | 6.66 |  |
| O=[N+]([O-])c1cn2c(n1)OC(CNc1ccc(OC(F)(F)F)cc1)CC2 (stereo not drawn) | ≤ 4.40 |  | 6.82 |  |
| CC1(COCc2ccc(OC(F)(F)F)cc2)CCn2cc([N+](=O)[O-])nc2O1 (stereo not drawn) | ≤ 4.40 |  | 6.52 |  |
